Drawing on patent publication US11992494B2, “Cyclopentathiophene carboxamide derivatives as platelet activating factor receptor antagonists” (Boehringer Ingelheim International GmbH, priority 2021, dated 2024), this text covers IC50 for 42 compounds.

Chain of PAFR (P25105 whole entry): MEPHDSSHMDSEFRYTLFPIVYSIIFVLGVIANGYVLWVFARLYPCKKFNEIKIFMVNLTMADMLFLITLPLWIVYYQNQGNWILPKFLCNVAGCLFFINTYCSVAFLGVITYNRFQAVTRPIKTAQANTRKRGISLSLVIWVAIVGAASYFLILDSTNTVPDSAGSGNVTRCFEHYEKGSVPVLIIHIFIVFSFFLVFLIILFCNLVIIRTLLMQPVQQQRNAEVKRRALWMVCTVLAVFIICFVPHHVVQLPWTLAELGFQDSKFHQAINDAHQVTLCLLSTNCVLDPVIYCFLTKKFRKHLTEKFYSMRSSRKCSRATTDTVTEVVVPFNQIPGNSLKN

One test deals with PAFR (Homo sapiens, UniProt P25105). The test is described as follows: cellular HTRF IP1 assay: inhibition of PAFR activation by PAF C-16 ligand (endpoint assay). Also noted: expressed in transfected cells; host or cells: HEK293. The class given is cell-based. Particulars: HEK293 cells overexpressing human PAFR; PAF ligand 11 nM; Table 2. How it is done: The ability of compounds of formula (I) to inhibit the activation of the PAF receptor (PAFR) by the PAF C-16 ligand (PAF) is determined using the following cellular HTRF IP1 assay (IP1 Gq assay kit from Cisbio, Cat. no.: 62IP1APEJ) in assay buffer (1×HBSS, 20 mM Hepes, pH 7.4, 50 mM LiCl and containing 0.1% (w/v) BSA):
Evaluation of the Inhibition of PAFR Activation Using an Endpoint Assay
HEK293 cells overexpressing human PAFR (produced in-house) are seeded into a Poly-D-Lysine coated 384 well white cell culture microtiter assay plate with lid (15.000 cells per well). Subsequently, the plates are incubated over night at 37° C./5% CO2. On the next day, cells are being washed and subsequently, various concentrations of the test compounds (compounds in 100% DMSO; final concentration of DMSO in wells is 1%) are added to the assay plate via Echo 555 acoustic liquid handler. Plates are then incubated with lid for 90 minutes at 37° C./5% CO2. Thereafter, PAF ligand (Cayman Chemical Company, Item no.: 60900) is added at a final concentration of 11 nM. Plates are then incubated with lid for 60 minutes at 37° C./5% CO2. Then, 5 μl per well of Anti-IP1-Antibody-Cryptate solution and 5 μl per well of IP1-d2 solution are added to all wells of the plate and the plate is incubated for another 60 minutes light protected at room temperature. The emissions at 620 nm and 665 nm (Excitation wavelength: 320 nm) are measured using an Envision Reader (PerkinElmer).
(TR-FRET usually uses a lanthanide donor and a delayed reading to cut background.)
In general, IC50 refers to the midpoint of a concentration-inhibition curve. On to `Cc1nnc2n1-c1sc3c(c1C(c1ccccc1Cl)=NC21CC1)C[C@H](C(=O)NC1CCC12CCOCC2)C3` (stereo partly drawn) [Example 64], for which the IC50 came to 8.6 nM.

As to `Cc1nnc2n1-c1sc3c(c1C(c1ccccc1Cl)=NC21CC1)C[C@H](C(=O)NC1CC(F)(F)C1)C3` [Example 27], the IC50 turned out to be 2.1 nM.

`Cc1nnc2n1-c1sc3c(c1C(c1ccccc1Cl)=NC21CC1)C[C@H](C(=O)NC1CCc2ncccc2C1)C3` (stereo partly drawn) [Example 97]: the half-inhibitory concentration (IC50) was 8.9 nM.

`CCN(C(=O)[C@@H]1Cc2sc3c(c2C1)C(c1ccccc1Cl)=NC1(CC1)c1nnc(C)n1-3)C1CCOCC1` [Example 83] showed an IC50 of 6.9 nM.

Regarding `CCn1ncc2c1CC[C@H](NC(=O)[C@@H]1Cc3sc4c(c3C1)C(c1ccccc1Cl)=NC1(CC1)c1nnc(C)n1-4)C2` [Example 100], half-maximal inhibition (IC50) required 22 nM.

`Cc1nnc2n1-c1sc3c(c1C(c1ccccc1Cl)=NC21CC1)C[C@H](C(=O)N1C[C@@H](C)O[C@H](C)C1)C3` [Example 123, (13′S)-9′-(2-chlorophenyl)-13′-[(2R,6R)-2,6-dimethylmorpholine-4-carbonyl]-3′-methyl-16′-thia-2′,4′,5′,8′-tetraazaspiro[cyclopropane-1,7′-tetracyclo[8.6.0.02,6.011,15]hexadecane]-1′(10′),3′,5′,8′,11′(15′)-pentaene]: the half-maximal inhibitory concentration (IC50) came to 5 nM.

`Cc1nnc2n1-c1sc3c(c1C(c1ccccc1Cl)=NC21CC1)C[C@H](C(=O)N1CC2(CCCO2)C1)C3` [Example 126, (13′S)-9′-(2-chlorophenyl)-3′-methyl-13′-{5-oxa-2-azaspiro[3.4]octane-2-carbonyl}-16′-thia-2′,4′,5′,8′-tetraazaspiro[cyclopropane-1,7′-tetracyclo[8.6.0.0^2,6.0^11,15]hexadecane]-1′(10′),3′,5′,8′,11′(15′)-pentaene] gave an IC50 of 9.4 nM.

`Cc1nnc2n1-c1sc3c(c1C(c1ccccc1O)=NC21CC1)C[C@H](C(=O)N1CCOCC1)C3` [Example 9, 2-[(13′S)-3′-methyl-13′-(morpholine-4-carbonyl)-16′-thia-2′,4′,5′,8′-tetraazaspiro[cyclopropane-1,7′-tetracyclo[8.6.0.0^2,6.0^11,15]hexadecane]-1′(10′),3′,5′,8′,11′(15′)-pentaen-9′-yl]phenol] registered an IC50 of 52 nM.

In turn, `Cc1nnc2n1-c1sc3c(c1C(c1ccccc1Cl)=NC21CC1)C[C@H](C(=O)N(C)C1CCCCCC1)C3` [Example 75] displayed an IC50 of 1.5 nM.

Regarding `Cc1nnc2n1-c1sc3c(c1C(c1ccccc1Cl)=NC21CC1)C[C@H](C(=O)NC1CC2CCC(C1)O2)C3` (stereo partly drawn) [Example 90], half-maximal inhibition (IC50) was put at 8.8 nM.

`CCN(C(=O)[C@@H]1Cc2sc3c(c2C1)C(c1ccccc1Cl)=NC1(CC1)c1nnc(C)n1-3)C1CCCCC1` [Example 91] came in with an IC50 of 1.5 nM.

Take `Cc1nnc2n1-c1sc3c(c1C(c1ccccc1Cl)=NC21CC1)C[C@H](C(=O)NC1(C)CCC1)C3` [Example 38]: the IC50 worked out at 1.6 nM.

Take `CCN(C(=O)[C@@H]1Cc2sc3c(c2C1)C(c1ccccc1Cl)=NC1(CC1)c1nnc(C)n1-3)[C@@H]1c2ccccc2C[C@H]1O` [Example 81]: the IC50 was found to be 3.6 nM. This IC50 lies about 2.2-fold higher than the previous one.

`Cc1nnc2n1-c1sc3c(c1C(c1ccccc1Cl)=NC21CC1)C[C@H](C(=O)NC1CCCC1)C3` [Example 14] gave an IC50 of 1.9 nM.

For `Cc1nnc2n1-c1sc3c(c1C(c1ccccc1Cl)=NC21CC1)C[C@H](C(=O)N1C[C@@H](C)O[C@@H](C)C1)C3` [Example 13], the midpoint of inhibition, the IC50, lay at 4.8 nM.

`Cc1nnc2n1-c1sc3c(c1C(c1ccccc1Cl)=NC21CC1)C[C@H](C(=O)N(C)C1CCC(C)(C)CC1)C3` [Example 79] showed an IC50 of 0.9 nM.

In turn, `Cc1nnc2n1-c1sc3c(c1C(c1ccccc1Cl)=NC21CC1)C[C@H](C(=O)NCCOC(F)(F)F)C3` [Example 67] returned an IC50 of 1.7 nM.

`Cc1nnc2n1-c1sc3c(c1C(c1ccccc1Cl)=NC21CC1)C[C@H](C(=O)NCC1CC1)C3` [Example 68]: it took 1.9 nM to reach half-maximal inhibition (IC50).

In turn, `Cc1nnc2n1-c1sc3c(c1C(c1ccccc1Cl)=NC21CC1)C[C@H](C(=O)NC1CCc2ncsc2C1)C3` (stereo partly drawn) [Example 34] displayed an IC50 of 3.8 nM. This IC50 is about 2-fold higher than that of the compound before.

On to `Cc1nnc2n1-c1sc3c(c1C(c1ccccc1Cl)=NC21CC1)C[C@H](C(=O)N[C@@H]1CCc2c1ccnc2N)C3` [Example 103], for which the IC50 came out at 14 nM.

Consider `Cc1nnc2n1-c1sc3c(c1C(c1ccccc1Cl)=NC21CC1)C[C@H](C(=O)N[C@H]1COC[C@H]1C(C)C)C3` [Example 88], for which the IC50 came to 5.1 nM. This IC50 lies about 2.7-fold lower than the previous one.

The compound `Cc1nnc2n1-c1sc3c(c1C(c1ccccc1Cl)=NC21CC1)C[C@H](C(=O)N(C)C1CCS(=O)(=O)C1)C3` (stereo partly drawn) [Example 89] came in with an IC50 of 15 nM. This IC50 is about 2.9-fold higher than that of the compound before.

For the compound `Cc1nnc2n1-c1sc3c(c1C(c1cc(N)ccc1Cl)=NC21CC1)C[C@H](C(=O)N1CCOCC1)C3` [Example 6, 4-chloro-3-[(13′S)-3′-methyl-13′-(morpholine-4-carbonyl)-16′-thia-2′,4′,5′,8′-tetraazaspiro[cyclopropane-1,7′-tetracyclo[8.6.0.0^2,6.0^11,15]hexadecane]-1′(10′),3′,5′,8′,11′(15′)-pentaen-9′-yl]aniline], the IC50 was 25 nM. This IC50 lies about 1.7-fold higher than the previous one.

Compound `Cc1nnc2n1-c1sc3c(c1C(c1ccccc1Cl)=NC21CC1)C[C@H](C(=O)N1C[C@H](C)O[C@@H](C)C1)C3` [Example 108, (13′S)-9′-(2-chlorophenyl)-13′-[(2S,6S)-2,6-dimethylmorpholine-4-carbonyl]-3′-methyl-16′-thia-2′,4′,5′,8′-tetraazaspiro[cyclopropane-1,7′-tetracyclo[8.6.0.0^2,6.0^11,15]hexadecane]-1′(10′),3′,5′,8′,11′(15′)-pentaene] had an IC50 of 4.6 nM.

The compound `Cc1nnc2n1-c1sc3c(c1C(c1ccccc1Cl)=NC21CC1)C[C@H](C(=O)NC1(c2ccccc2)CCOCC1)C3` [Example 96] came in with an IC50 of 6 nM.

Take `COc1cc(C2(NC(=O)[C@@H]3Cc4sc5c(c4C3)C(c3ccccc3Cl)=NC3(CC3)c3nnc(C)n3-5)CC2)ccn1` [Example 85]: the IC50 was determined as 3.9 nM. This IC50 is about 1.5-fold lower than that of the compound before.

In the case of `Cc1nnc2n1-c1sc3c(c1C(c1ccccc1Cl)=NC21CC1)C[C@H](C(=O)N[C@H]1CCC(F)(F)C1)C3` [Example 24], half-maximal inhibition (IC50) required 2 nM. Compared with the last compound, the IC50 is about 1.9-fold lower.

`Cc1nnc2n1-c1sc3c(c1C(c1ccccc1Cl)=NC21CC1)C[C@H](C(=O)N[C@@H]1C[C@H]1C)C3` [Example 107] came in with an IC50 of 2.7 nM.

For the compound `Cc1nnc2n1-c1sc3c(c1C(c1ccccc1Cl)=NC21CC1)C[C@H](C(=O)NC1(c2ccc(Cl)cn2)CC1)C3` [Example 35], inhibition was half-maximal at 1.6 nM (IC50). This IC50 is about 1.7-fold lower than that of the compound before.

On to `Cc1nnc2n1-c1sc3c(c1C(c1ccccc1Cl)=NC21CC1)C[C@H](C(=O)NC1CCCC(F)(F)C1)C3` (stereo partly drawn) [Example 25], for which the IC50 came to 2.3 nM. This IC50 and that of the compound before are within 1.5-fold of each other.

`Cc1nnc2n1-c1sc3c(c1C(c1ccccc1Cl)=NC21CC1)C[C@H](C(=O)N[C@H]1CCc2ccccc2C1)C3` [Example 58]: half-maximal inhibition (IC50) was put at 0.4 nM.

With `Cc1nnc2n1-c1sc3c(c1C(c1ccccc1Cl)=NC21CC1)C[C@H](C(=O)NC1CCC1(C)C)C3` (stereo partly drawn) [Example 47], the IC50 amounted to 1.6 nM.

`Cc1nnc2n1-c1sc3c(c1C(c1ccccc1Cl)=NC21CC1)C[C@H](C(=O)NC1CCC2(CC1)CC2)C3` [Example 69] returned an IC50 of 1.5 nM.

Take `Cc1nnc2n1-c1sc3c(c1C(c1ccccc1Cl)=NC21CC1)C[C@H](C(=O)NC1Cc2ccccc2C1)C3` [Example 31]: the IC50 was 0.9 nM.

With `Cc1nnc2n1-c1sc3c(c1C(c1ccccc1Cl)=NC21CC1)C[C@H](C(=O)N[C@H]1C[C@H]2OCCC[C@@H]12)C3` [Example 93], the midpoint of inhibition, the IC50, lay at 5.2 nM.

The compound `Cc1nnc2n1-c1sc3c(c1C(c1cc(Cl)ccc1Cl)=NC21CC1)C[C@H](C(=O)N1CCOCC1)C3` [Example 3, (13′S)-9′-(2,5-dichlorophenyl)-3′-methyl-13′-(morpholine-4-carbonyl)-16′-thia-2′,4′,5′,8′-tetraazaspiro[cyclopropane-1,7′-tetracyclo[8.6.0.0^2,6.0^11,15]hexadecane]-1′(10′),3′,5′,8′,11′(15′)-pentaene] came in with an IC50 of 17 nM.

In turn, `CO[C@@H]1CC[C@H]1NC(=O)[C@@H]1Cc2sc3c(c2C1)C(c1ccccc1Cl)=NC1(CC1)c1nnc(C)n1-3` [Example 57] had an IC50 of 7.1 nM.

Staying with this test, now noted: S-bepafant and its methylated derivatives in the above-mentioned assay.
Consider `Cc1nnc2n1-c1sc3c(c1C(c1ccccc1Cl)=NC2)C[C@H](C(=O)N1CCOCC1)C3` [S-bepafant, reference compound], for which half-maximal inhibition (IC50) required 73.5 nM.

Still in this test, the particulars now being: dedicated head-to-head comparison assay run: cyclopropylene vs di-methyl / cyclobutylene analogues.
Compound `Cc1nnc2n1-c1sc3c(c1C(c1ccccc1Cl)=NC2(C)C)C[C@H](C(=O)N1CCC(F)(F)CC1)C3` [reference compound] had an IC50 of 30 nM. This counts as double-digit nanomolar.

`CCCNC(=O)[C@@H]1Cc2sc3c(c2C1)C(c1ccccc1Cl)=NC(C)(C)c1nnc(C)n1-3` [reference compound] registered an IC50 of 29 nM.

With `Cc1nnc2n1-c1sc3c(c1C(c1ccccc1Cl)=NC2(C)C)C[C@H](C(=O)NC1(c2ccccn2)CC1)C3` [reference compound], it took 26 nM to reach half-maximal inhibition (IC50).

Compound `Cc1nnc2n1-c1sc3c(c1C(c1ccccc1Cl)=NC2(C)C)C[C@H](C(=O)N(C)[C@H]1CC[C@H](O)CC1)C3` [reference compound] gave an IC50 of 87 nM. Against the preceding compound, the IC50 is about 3.3-fold higher.
